Data set [1] concerns 22Rv1 cell line lentiviral transduced with CMV-firefly luciferase. The data set is described as follows: reporter gene assay to monitor transcriptional effects. Type of data set: cell-based. The note with it: Homo sapiens; 22Rv1, CMV-firefly luciferase. As to the method:
(§1) All compounds were evaluated in a reporter gene assay (22Rv1 cell line lentiviral transduced with CMV-firefly luciferase) to monitor transcriptional effects and two cell viability assays (Cell-titer blue; PC3 cell line, an AR insensitive cell line, and LNCaP cell line, an AR sensitive cell line). The compounds were also monitored for aggregation.
For orientation: In a reporter assay the amount or activity of a reporter protein is the signal.

The subject of data set [2] is PC3 cell line, an AR insensitive cell line. The data set is described as follows: cell viability assay (Cell-titer blue), PC3. The note with it: Homo sapiens, PC-3, read-out: PC3 CTB IC50. Type of data set: cell-based. As to the method: as §1
Data set [3] concerns LNCaP cell line, an AR sensitive cell line. The data set is described as follows: cell viability assay (Cell-titer blue), LNCaP. The data set is classed as cell-based. Particulars: Homo sapiens, read-out: LNCaP CTB IC50. How it is done:
as §1

The nature of another data set: Solubility. Type of data set: physicochemical.

Converted amounts (≈) assume the structure as drawn. Like-named read-outs stand apart in the source and are kept apart here.

Consider `O=C(NCCC1CC2C=CC1C2)c1cccc(OC2CCN(C(=O)C3CCCC3)CC2)c1` (stereo not drawn) [Compound I-3], for which the figures for the IC50 in data set [1], in data set [2] and in data set [3] were about 24.6 µM, 3560 µM and 16.7 µM, respectively. In addition, the “Solubility” value in “Solubility” was 25 mM (≈ 10.9 mg/mL).
For the compound `O=C(NCCC1CC2C=CC1C2)c1cccc(OC2CCN(C(=O)C3CCCCC3)CC2)c1` (stereo not drawn) [Compound I-4], the half-maximal inhibitory concentration (IC50) was about 25.2 µM in data set [1], 33400 µM in data set [2] and 24.3 µM in data set [3]. The “Solubility” value in “Solubility” was 25 mM (≈ 11.3 mg/mL).
With `O=C(NCCC1CC2C=CC1C2)c1cccc(OC2CCN(C(=O)C3CCC3)CC2)c1` (stereo not drawn) [Compound I-5], the 50% inhibitory concentration (IC50) is about 25.2 µM in data set [1] and 24.6 µM in data set [3]. Besides, in “Solubility”, the “Solubility” value amounted to 25 mM (≈ 10.6 mg/mL).
As to `O=C(NCCC1CC2C=CC1C2)c1cccc(OC2CCN(C(=O)c3ccccc3)CC2)c1` (stereo not drawn) [Compound I-6], the IC50 in data set [1] is about 24.9 µM; in data set [3], 8.2 µM. In the data set “Solubility”, the “Solubility” value worked out at 25 mM (≈ 11.1 mg/mL).
Consider `O=C(NCCC1CC2C=CC1C2)c1cccc(OC2CCN(C(=O)Cc3ccccc3)CC2)c1` (stereo not drawn) [Compound I-7], for which the concentration for half-maximal inhibition (IC50) in data set [1] was about 25.9 µM; in data set [3], 52.4 µM. The “Solubility” value in the data set “Solubility” was 25 mM (≈ 11.5 mg/mL).
The like results for `O=C(NCCC1CC2C=CC1C2)c1cccc(OC2CCN(C(=O)C(F)(F)F)CC2)c1` (stereo not drawn) [Compound I-8] were, in that order, 21.9 µM, 70.5 µM and 25 mM (≈ 10.9 mg/mL).
Take `O=C(NCCC1CC2C=CC1C2)c1cccc(OC2CCN(C(=O)c3cccnc3)CC2)c1` (stereo not drawn) [Compound I-9]: in data set [3], the half-maximal inhibitory concentration (IC50) stood at 355 µM. Besides, in the data set “Solubility”, the “Solubility” value amounted to 25 mM (≈ 11.1 mg/mL).
Turning to `O=C(NCCC1CC2C=CC1C2)c1ccc(OC2CCN(C(=O)C3CC3)CC2)cc1` (stereo not drawn) [Compound I-10], in “Solubility”, the “Solubility” value came out at 25 mM (≈ 10.2 mg/mL).
For the compound `O=C(NCC1CC2C=CC1C2)c1cccc(OC2CCN(C(=O)C3CC3)CC2)c1` (stereo not drawn) [Compound I-11], in data set [1], the IC50 stood at 28.3 µM. In addition, in the data set “Solubility”, the “Solubility” value was determined as 25 mM (≈ 9.86 mg/mL).
For `O=C(NCC12CC3CC(CC(C3)C1)C2)c1cccc(OC2CCN(C(=O)C3CC3)CC2)c1` [Compound I-13], the half-inhibitory concentration (IC50) in data set [3] turned out to be 172 µM. The “Solubility” value in the data set “Solubility” is recorded as 25 mM (≈ 10.9 mg/mL).
Regarding `CC(NC(=O)c1cccc(OC2CCN(C(=O)C3CC3)CC2)c1)C12CC3CC(CC(C3)C1)C2` (stereo not drawn) [Compound I-14], the “Solubility” value in the data set “Solubility” is recorded as 25 mM (≈ 11.3 mg/mL).
As to `O=C(NCC1CC2C=CC1C2)c1cccc(OC2CCN(C(=O)C(F)(F)F)CC2)c1` (stereo not drawn) [Compound I-17], the figures for the IC50 in data set [1] and in data set [3] were 5.21 µM and 18.4 µM, respectively. In addition, in “Solubility”, the “Solubility” value worked out at 25 mM (≈ 10.6 mg/mL).
On the same counts, the results for `O=C(NCC1CC2C=CC1C2)c1cccc(OC2CCN(C(=O)C3CCC3)CC2)c1` (stereo not drawn) [Compound I-18] are about 24.4 µM, 41.2 µM and 25 mM (≈ 10.2 mg/mL).
Regarding `CC(=O)Oc1cccc(C(=O)NCC2CC3C=CC2CC3)c1` (stereo not drawn) [Compound I-19], in the data set “Solubility”, the “Solubility” value was 25 mM (≈ 7.48 mg/mL).
Same read-out and setting: the result for `O=C(NCC1CC2C=CC1CC2)c1cccc(O)c1` (stereo not drawn) [Compound I-20] reads 25 mM (≈ 6.43 mg/mL).
As to `CCCC(CCC)C(=O)N1CCC(Oc2cccc(C(=O)NCCC3CC4C=CC3C4)c2)CC1` (stereo not drawn) [Compound I-21], the IC50 in data set [3] turned out to be 342 µM. Besides, the “Solubility” value in “Solubility” is on record as 25 mM (≈ 11.7 mg/mL).
On to `O=C(NCCC1CC2C=CC1C2)c1cccc(OC2CCN(C(=O)CCc3ccc(Cl)cc3)CC2)c1` (stereo not drawn) [Compound I-22], for which, in data set [3], the IC50 was found to be 3580 µM. Further, the Solubility in the data set “Solubility” (read-out: Solubility) is 6.25 mM (≈ 3.17 mg/mL).
With `O=C(NCC1CC2C=CC1CC2)c1cccc(OC2CCN(C(=O)C3CC3)CC2)c1` (stereo not drawn) [Compound I-23], the figures for the half-inhibitory concentration (IC50) in data set [1] and in data set [3] were about 25.5 µM and 1020 µM, respectively. Besides, the “Solubility” value in the data set “Solubility” turned out to be 25 mM (≈ 10.2 mg/mL).
Consider `CN(Cc1cccc2ncccc12)C(=O)c1cccc(OC2CCN(C(=O)C3CC3)CC2)c1` [Compound I-24], for which the 50% inhibitory concentration (IC50) in data set [1] worked out at 20.4 µM; in data set [3] it was 1650 µM. Also, the Solubility in the data set “Solubility” (read-out: Solubility) is 12.5 mM (≈ 5.54 mg/mL).
Take `O=C(NCC1CC2C=CC1CC2)c1ccc(OC2CCN(C(=O)C3CC3)CC2)cc1` (stereo not drawn) [Compound I-25]: the half-inhibitory concentration (IC50) in data set [3] was 388 µM. Moreover, the “Solubility” value in “Solubility” was found to be 25 mM (≈ 10.2 mg/mL).
Regarding `O=C(NCCCc1ccccc1)c1cccc(OC2CCN(C(=O)C3CC3)CC2)c1` [Compound I-26], the 50% inhibitory concentration (IC50) was 341 µM in data set [2] and 222 µM in data set [3]. The “Solubility” value in the data set “Solubility” is 25 mM (≈ 10.2 mg/mL).
In the case of `O=C(Nc1ccc2ccccc2c1)c1cccc(OC2CCN(C(=O)C3CC3)CC2)c1` [Compound I-27], the IC50 in data set [2] was determined as 49.9 µM; in data set [3] it was 28.5 µM. The Solubility in the data set “Solubility” (read-out: Solubility) was 12.5 mM (≈ 5.18 mg/mL).
`O=C(Nc1ccc(Cl)cc1)c1cccc(OC2CCN(C(=O)C3CC3)CC2)c1` [Compound I-28]: the IC50 in data set [2] is 176 µM; in data set [3] it was 698 µM. Further, the “Solubility” value in the data set “Solubility” worked out at 25 mM (≈ 9.97 mg/mL).
As for `CC(C)c1ccc(NC(=O)c2cccc(OC3CCN(C(=O)C4CC4)CC3)c2)cc1` [Compound I-29], in data set [3], the IC50 was 25.1 µM. Besides, the “Solubility” value in the data set “Solubility” is 25 mM (≈ 10.2 mg/mL).
Turning to `O=C(Nc1ccccc1)c1cccc(OC2CCN(C(=O)C3CC3)CC2)c1` [Compound I-30], the half-inhibitory concentration (IC50) in data set [3] came to 136 µM. For the same compound, the “Solubility” value in “Solubility” was 25 mM (≈ 9.11 mg/mL).
In the case of `O=C(NCc1ccccc1)c1cccc(OC2CCN(C(=O)C3CC3)CC2)c1` [Compound I-31], the IC50 amounted to 166 µM in data set [2] and 62.6 µM in data set [3]. Besides, in “Solubility”, the “Solubility” value stood at 25 mM (≈ 9.46 mg/mL).
Consider `O=C(NCCC1CCCCC1)c1cccc(OC2CCN(C(=O)C3CC3)CC2)c1` [Compound I-32], for which the concentration for half-maximal inhibition (IC50) in data set [2] was determined as 101 µM; in data set [3] it was 79.2 µM. Besides, the “Solubility” value in the data set “Solubility” is listed as 25 mM (≈ 9.96 mg/mL).
For the compound `CCCCC(=O)N1CCC(Oc2cccc(C(=O)NCCC3CC4C=CC3C4)c2)CC1` (stereo not drawn) [Compound I-34], the half-maximal inhibitory concentration (IC50) is about 27.9 µM in data set [1], 55.8 µM in data set [2] and 28.8 µM in data set [3]. For the same compound, the Solubility in the data set “Solubility” (read-out: Solubility) is 12.5 mM (≈ 5.31 mg/mL).
Consider `C=CCCC(=O)N1CCC(Oc2cccc(C(=O)NCCC3CC4C=CC3C4)c2)CC1` (stereo not drawn) [Compound I-35], for which the IC50 in data set [1] was 31.5 µM; in data set [3], 26.5 µM. Further, the “Solubility” value in “Solubility” is reported as 25 mM (≈ 10.6 mg/mL).
As to `CC(=O)CCC(=O)N1CCC(Oc2cccc(C(=O)NCCC3CC4C=CC3C4)c2)CC1` (stereo not drawn) [Compound I-36], the IC50 in data set [2] stood at 80.5 µM. The “Solubility” value in “Solubility” was determined as 25 mM (≈ 11 mg/mL).
On the same counts, the results for `O=C(NCC1C2C=CC(C2)C1CO)c1ccc(OC2CCN(C(=O)C3CC3)CC2)cc1` (stereo not drawn) [Compound I-37] are 1150 µM and 25 mM (≈ 10.6 mg/mL).
As for `CCOC(=O)C1C2C=CC(C2)C1CNC(=O)c1ccc(OC2CCN(C(=O)C3CC3)CC2)cc1` (stereo not drawn) [Compound I-38], the IC50 in data set [2] amounted to 1890 µM. In addition, the Solubility in the data set “Solubility” (read-out: Solubility) came out at 12.5 mM (≈ 5.83 mg/mL).
Turning to `O=C(NCC1CC2C=CC1CC2)c1cccc(OC2CCN(C(=O)C(F)(F)F)CC2)c1` (stereo not drawn) [Compound I-39], the IC50 in data set [2] was 93.9 µM; in data set [3], 397 µM. Moreover, the “Solubility” value in the data set “Solubility” is 25 mM (≈ 10.9 mg/mL).
On to `O=C(NCC1CC2C=CC1CC2)c1cccc(OC2CCN(C(=O)c3cccnc3)CC2)c1` (stereo not drawn) [Compound I-40], for which the IC50 in data set [2] is 90.3 µM; in data set [3], 120 µM. Besides, in “Solubility”, the “Solubility” value is recorded as 25 mM (≈ 11.1 mg/mL).
For `Cc1c(C(=O)N(C)Cc2cccc3ncccc23)sc2ncnc(NCC3C4C=CC(C4)C3CO)c12` (stereo not drawn) [II-3], the IC50 turned out to be 3210 µM in data set [2] and 493 µM in data set [3]. Besides, the “Solubility” value in “Solubility” is 25 mM (≈ 12.5 mg/mL).
As for `Cc1c(C(=O)N(C)Cc2cccc3ncccc23)sc2ncnc(NCCC3CCCCC3)c12` [II-4], the figures for the half-maximal inhibitory concentration (IC50) in data set [1] and in data set [3] were 9.63 µM and 10.7 µM, respectively. For the same compound, the “Solubility” value in the data set “Solubility” worked out at 25 mM (≈ 11.8 mg/mL).
In the case of `Cc1c(C(=O)N(C)Cc2cccc3ncccc23)sc2ncnc(NCC3CC4C=CC3CC4)c12` (stereo not drawn) [II-5], the 50% inhibitory concentration (IC50) in data set [1] was found to be 2.36 µM; in data set [2], 782 µM; in data set [3], 8.09 µM. For the same compound, the “Solubility” value in “Solubility” was found to be 25 mM (≈ 12.1 mg/mL).
Regarding `Cc1c(C(=O)N(C)Cc2cccc3ncccc23)sc2ncnc(NCCC3CC4C=CC3C4)c12` (stereo not drawn) [II-6], the IC50 in data set [1] was 8.29 µM; in data set [2], 1680 µM; in data set [3], 14.1 µM. Also, in the data set “Solubility”, the “Solubility” value stood at 25 mM (≈ 12.1 mg/mL).
On to `Cc1c(C(=O)Nc2ccc3ccccc3c2)sc2ncnc(NCC3CC4C=CC3C4)c12` (stereo not drawn) [II-7], for which, in data set [3], the IC50 came out at 68.2 µM. In “Solubility”, the “Solubility” value stood at 25 mM (≈ 11 mg/mL).

One may read the IC50 as the point on the concentration scale where inhibition reaches its midpoint. By Solubility is commonly meant the dissolved amount per volume that the medium holds.

The record behind these values is patent US10961216B2, “Small molecule modulators of the androgen receptor” (Massachusetts Institute of Technology, priority 2017, dated 2021).
